Laboratory results published in patent US10668040B2, “Treatment of urea cycle disorders in neonates and infants” (Horizon Therapeutics, LLC, priority 2017, dated 2020).

System: UCD patients
Experiment: Example 3: TEAEs, serious and non-serious adverse events
Assay type: in vivo
From the text: Sixteen newborn infants aged 0 to 27 days, and 10 infants and toddlers aged 28 days to 23 months received RAVICTI Oral Liquid administered just prior to breastfeeding or intake of formula or food. The recommended dosing regimen was 3-6 times per day depending on feeding schedule.
Number of Subjects with Treatment-Emergent Adverse Events (TEAEs), Serious TEAEs, Deaths, and Discontinuations Due to TEAEs
An adverse event (AE) is any untoward medical occurrence, whether or not the event is considered related to the study drug. A serious AE is any AE that: results in death; is life threatening; requires hospitalization or prolongation of existing hospitalization; results in disability/incapacity; is a congenital anomaly/birth defect; is an important medical event. TEAEs are defined as AEs with an onset date on or after the first dose of study medication until study discontinuation. The Investigator assessed the causal relationship of each TEAE to the study drug as not related, possibly related, or probably related. From the first dose of study treatment through 30 days after the final dose (mean [SD] duration of treatment was 9.13 [6.838] months).

O=C(CCCc1ccccc1)OCC(COC(=O)CCCc1ccccc1)OC(=O)CCCc1ccccc1 [RAVICTI, benzenebutanoic acid, 1′,1″-(1,2,3-propanetriyl) ester]
Number of Deaths (All Causes) (Age 0 to <2 Months): 0
Serious AE Ammonia Increased: Deaths causally related to treatment/all (Age 0 to <2 Months): 0/0
Serious AE Ammonia Increased: Occurrences causally related to treatment/all (Age 0 to <2 Months): 0/0
Serious AE Apnoeic Attack: Deaths causally related to treatment/all (Age 0 to <2 Months): 0/0
Serious AE Apnoeic Attack: Occurrences causally related to treatment/all (Age 0 to <2 Months): 0/0
Serious AE Asthma: Deaths causally related to treatment/all (Age 0 to <2 Months): 0/0
Serious AE Asthma: Occurrences causally related to treatment/all (Age 0 to <2 Months): 0/0
Serious AE Atelectasis: Deaths causally related to treatment/all (Age 0 to <2 Months): 0/0
Serious AE Atelectasis: Occurrences causally related to treatment/all (Age 0 to <2 Months): 0/1
Serious AE Bacteraemia: Deaths causally related to treatment/all (Age 0 to <2 Months): 0/0
Serious AE Bacteraemia: Occurrences causally related to treatment/all (Age 0 to <2 Months): 0/1
Serious AE Cellulitis: Deaths causally related to treatment/all (Age 0 to <2 Months): 0/0
Serious AE Cellulitis: Occurrences causally related to treatment/all (Age 0 to <2 Months): 0/1
Serious AE Croup infectious: Deaths causally related to treatment/all (Age 0 to <2 Months): 0/0
Serious AE Croup infectious: Occurrences causally related to treatment/all (Age 0 to <2 Months): 0/1
Serious AE Cyanosis: Deaths causally related to treatment/all (Age 0 to <2 Months): 0/0
Serious AE Cyanosis: Occurrences causally related to treatment/all (Age 0 to <2 Months): 0/0
Serious AE Dehydration: Deaths causally related to treatment/all (Age 0 to <2 Months): 0/0
Serious AE Dehydration: Occurrences causally related to treatment/all (Age 0 to <2 Months): 0/1
Serious AE Device related infection: Deaths causally related to treatment/all (Age 0 to <2 Months): 0/0
Serious AE Device related infection: Occurrences causally related to treatment/all (Age 0 to <2 Months): 0/1
Serious AE Feeding Disorder: Deaths causally related to treatment/all (Age 0 to <2 Months): 0/0
Serious AE Feeding Disorder: Occurrences causally related to treatment/all (Age 0 to <2 Months): 0/1
Serious AE Gastroenteritis: Deaths causally related to treatment/all (Age 0 to <2 Months): 0/0
Serious AE Gastroenteritis: Occurrences causally related to treatment/all (Age 0 to <2 Months): 0/0
Serious AE Hyperammonaemia: Deaths causally related to treatment/all (Age 0 to <2 Months): 0/0
Serious AE Hyperammonaemia: Occurrences causally related to treatment/all (Age 0 to <2 Months): 0/7
Serious AE Influenza: Deaths causally related to treatment/all (Age 0 to <2 Months): 0/0
Serious AE Influenza: Occurrences causally related to treatment/all (Age 0 to <2 Months): 0/0
Serious AE Lethargy: Deaths causally related to treatment/all (Age 0 to <2 Months): 0/0
Serious AE Lethargy: Occurrences causally related to treatment/all (Age 0 to <2 Months): 0/1
Serious AE Medical device site infection: Deaths causally related to treatment/all (Age 0 to <2 Months): 0/0
Serious AE Medical device site infection: Occurrences causally related to treatment/all (Age 0 to <2 Months): 0/1
Serious AE Meningitis bacterial: Deaths causally related to treatment/all (Age 0 to <2 Months): 0/0
Serious AE Meningitis bacterial: Occurrences causally related to treatment/all (Age 0 to <2 Months): 0/1
Serious AE Neutropenia: Deaths causally related to treatment/all (Age 0 to <2 Months): 0/0
Serious AE Neutropenia: Occurrences causally related to treatment/all (Age 0 to <2 Months): 0/1
Serious AE Peritonitis: Deaths causally related to treatment/all (Age 0 to <2 Months): 0/0
Serious AE Peritonitis: Occurrences causally related to treatment/all (Age 0 to <2 Months): 0/0
Serious AE Pneumatosis intestinalis: Deaths causally related to treatment/all (Age 0 to <2 Months): 0/0
Serious AE Pneumatosis intestinalis: Occurrences causally related to treatment/all (Age 0 to <2 Months): 0/0
Serious AE Pyrexia: Deaths causally related to treatment/all (Age 0 to <2 Months): 0/0
Serious AE Pyrexia: Occurrences causally related to treatment/all (Age 0 to <2 Months): 0/0
Serious AE Respiratory syncytial virus infection: Deaths causally related to treatment/all (Age 0 to <2 Months): 0/0
Serious AE Respiratory syncytial virus infection: Occurrences causally related to treatment/all (Age 0 to <2 Months): 0/1
Serious AE Rhinovirus infection: Deaths causally related to treatment/all (Age 0 to <2 Months): 0/0
Serious AE Rhinovirus infection: Occurrences causally related to treatment/all (Age 0 to <2 Months): 0/0
Serious AE Status asthmaticus: Deaths causally related to treatment/all (Age 0 to <2 Months): 0/0
Serious AE Status asthmaticus: Occurrences causally related to treatment/all (Age 0 to <2 Months): 0/0
Serious AE Tracheitis: Deaths causally related to treatment/all (Age 0 to <2 Months): 0/0
Serious AE Tracheitis: Occurrences causally related to treatment/all (Age 0 to <2 Months): 0/1
Serious AE Upper respiratory tract infection: Deaths causally related to treatment/all (Age 0 to <2 Months): 0/0
Serious AE Upper respiratory tract infection: Occurrences causally related to treatment/all (Age 0 to <2 Months): 0/1
Serious AE Urinary tract infection: Deaths causally related to treatment/all (Age 0 to <2 Months): 0/0
Serious AE Urinary tract infection: Occurrences causally related to treatment/all (Age 0 to <2 Months): 0/1
Serious AE Viral infection: Deaths causally related to treatment/all (Age 0 to <2 Months): 0/0
Serious AE Viral infection: Occurrences causally related to treatment/all (Age 0 to <2 Months): 0/1
Serious AE Viral upper respiratory tract infection: Deaths causally related to treatment/all (Age 0 to <2 Months): 0/0
Serious AE Viral upper respiratory tract infection: Occurrences causally related to treatment/all (Age 0 to <2 Months): 0/0
Serious AE Vomiting: Deaths causally related to treatment/all (Age 0 to <2 Months): 0/0
Serious AE Vomiting: Occurrences causally related to treatment/all (Age 0 to <2 Months): 0/2
Number of Deaths (All Causes) (Age 2 Months to <2 Years): 1
Serious AE Ammonia Increased: Deaths causally related to treatment/all (Age 2 Months to <2 Years): 0/0
Serious AE Ammonia Increased: Occurrences causally related to treatment/all (Age 2 Months to <2 Years): 0/1
Serious AE Apnoeic Attack: Deaths causally related to treatment/all (Age 2 Months to <2 Years): 0/0
Serious AE Apnoeic Attack: Occurrences causally related to treatment/all (Age 2 Months to <2 Years): 0/2
Serious AE Asthma: Deaths causally related to treatment/all (Age 2 Months to <2 Years): 0/0
Serious AE Asthma: Occurrences causally related to treatment/all (Age 2 Months to <2 Years): 0/1
Serious AE Atelectasis: Deaths causally related to treatment/all (Age 2 Months to <2 Years): 0/0
Serious AE Atelectasis: Occurrences causally related to treatment/all (Age 2 Months to <2 Years): 0/0
Serious AE Bacteraemia: Deaths causally related to treatment/all (Age 2 Months to <2 Years): 0/0
Serious AE Bacteraemia: Occurrences causally related to treatment/all (Age 2 Months to <2 Years): 0/0
Serious AE Cellulitis: Deaths causally related to treatment/all (Age 2 Months to <2 Years): 0/0
Serious AE Cellulitis: Occurrences causally related to treatment/all (Age 2 Months to <2 Years): 0/0
Serious AE Croup infectious: Deaths causally related to treatment/all (Age 2 Months to <2 Years): 0/0
Serious AE Croup infectious: Occurrences causally related to treatment/all (Age 2 Months to <2 Years): 0/1
Serious AE Cyanosis: Deaths causally related to treatment/all (Age 2 Months to <2 Years): 0/0
Serious AE Cyanosis: Occurrences causally related to treatment/all (Age 2 Months to <2 Years): 0/2
Serious AE Dehydration: Deaths causally related to treatment/all (Age 2 Months to <2 Years): 0/0
Serious AE Dehydration: Occurrences causally related to treatment/all (Age 2 Months to <2 Years): 0/0
Serious AE Device related infection: Deaths causally related to treatment/all (Age 2 Months to <2 Years): 0/0
Serious AE Device related infection: Occurrences causally related to treatment/all (Age 2 Months to <2 Years): 0/0
Serious AE Feeding Disorder: Deaths causally related to treatment/all (Age 2 Months to <2 Years): 0/0
